This note sets out measurements from US20070161696A1, “Methods of using and compositions comprising selective cytokine inhibitory drugs for treatment, modification and management of pain” (priority 2004, published 2007).

Data set [1] in a line: Clinical study in pain patients with upper extremity CRPS. Particulars: 1,200 mg as a continuous oral daily dose. Format: in vivo, human. The method, then: Selective cytokine inhibitory drugs of the invention such as 3-(3,4-dimethoxy-phenyl)-3-(1-oxo-1,3-dihydro-isoindol-2-yl)-propionamide are administered in an amount of 400 to 1,200 mg per day to patients with pain syndromes for three to six months. A baseline evaluation is performed for the effect of the drug treatment on pain intensity, impact of pain on activities of daily living, and consumption of other pain medications.
In a specific embodiment, clinical studies are performed in pain patients who have upper extremity CRPS that has not responded to conventional physical therapy and has been present for at least one year. In the early course of their diseases, patients have clear evidence of autonomic dysfunction with formal autonomic testing (Quantitative sudomotor axon reflex test (QSART), resting sweat output, and thermography). If this is unavailable, documentation of clinical signs indicates autonomic dysfunction (changes in hydration, temperature, skin, nail or hair growth) along with symptoms of allodynia and swelling. […] Responses are assessed using standard pain scales, e.g., Numeric Pain Scale Assessment (VAS) for pain, quality of life using the McGill Index and objective signs in clinical examination such as a visible reduction of swelling, sweating, discolorations in skin color, temperature changes, changes in skin, hair and nail growth, and fine motor movements. […]

A further data set has as its system TNF-α production. The data set can be described thus: Inhibition of TNF-α production following LPS-stimulation of human PBMC and human whole blood, in vitro. Format: cell-based. Particulars: in vitro studies; compared with thalidomide. The method, then: In a specific embodiment, the pharmacological properties of 3-(3,4-dimethoxy-phenyl)-3-(1-oxo-1,3-dihydro-isoindol-2-yl)-propionamide are characterized in in vitro studies. Studies examine the effects of the compound on the production of various cytokines. Inhibition of TNF-α production following LPS-stimulation of human PBMC and human whole blood by the compound is investigated in vitro. The IC50's of the compound for inhibiting production of TNF-α are measured. […] The pharmacological effects of 3-(3,4-dimethoxy-phenyl)-3-(1-oxo-1,3-dihydro-isoindol-2-yl)-propionamide may derive from its action as an inhibitor of the generation of inflammatory cytokines.

Data set [2] in a line: Cardiovascular and respiratory function in anesthetized dogs. It counts as in vivo. Particulars: anesthetized Beagle dogs; ascending doses 400, 800 and 1,200 mg/kg/day by infusion through the jugular vein; compared to vehicle control group. How it is done:
The effects of 3-(3,4-dimethoxy-phenyl)-3-(1-oxo-1,3-dihydro-isoindol-2-yl)-propionamide on cardiovascular and respiratory function are investigated in anesthetized dogs. Two groups of Beagle dogs (2/sex/group) are used. One group receives three doses of vehicle only and the other receives three ascending doses of 3-(3,4-dimethoxy-phenyl)-3-(1-oxo-1,3-dihydro-isoindol-2-yl)-propionamide (400, 800, and 1,200 mg/kg/day). In all cases, doses of 3-(3,4-dimethoxy-phenyl)-3-(1-oxo-1,3-dihydro-isoindol-2-yl)-propionamide or vehicle are successively administered via infusion through the jugular vein separated by intervals of at least 30 minutes.
The cardiovascular and respiratory changes induced by 3-(3,4-dimethoxy-phenyl)-3-(1-oxo-1,3-dihydro-isoindol-2-yl)-propionamide are minimal at all doses when compared to the vehicle control group. 5.3 Studies Using Animal Pain Models

The structures appear in SMILES notation.

As for `COc1ccc(C(CC(N)=O)N2Cc3ccccc3C2=O)cc1OC` (stereo not drawn) [3-(3,4-Dimethoxy-phenyl)-3-(1-oxo-1,3-dihydro-isoindol-2-yl)-propionamide], in data set [1], the tolerability entry is listed as “well-tolerated”. Further, the “pharmacological activity profile, potency relative to thalidomide” value with TNF-α production is “five to fifty times more potent than thalidomide”. In addition, in data set [2], the “cardiovascular and respiratory changes” value is recorded as “minimal”.
